Experimental findings from ChEMBL document CHEMBL2046368, “New triterpenoid saponins from cacti and anti-type I allergy activity of saponins from cactus” (Bioorg Med Chem Lett, 2012) are described below.

Structures are written as SMILES.

For orientation: IC50 means the concentration that inhibits the measured activity by half. As a reminder, the inhibition is the change of the read-out against control, counted positive when it falls.

One experiment concerns RBL-2H3. Briefly: Anti-type1 allergic activity in rat RBL2H3 cells using p-nitrophenyl-2-acdetamido-2-deoxy-beta-D-glucopyranoside as substrate assessed as inhibition of beta-hexosaminidase release incubated for 10 mins prior to substrate addition measured after 60 mins by spectrophotometry. Type of experiment: functional, cell-based.
Regarding `C[C@H]1C[C@]23C(=O)O[C@@]14C(=CC[C@@H]1[C@@]5(C)CC[C@H](O[C@@H]6O[C@H](C(=O)O)[C@@H](O)[C@H](O[C@@H]7OC[C@@H](O)[C@H](O)[C@H]7O)[C@H]6O[C@@H]6O[C@H](CO)[C@@H](O)[C@H](O)[C@H]6O)C(C)(C)[C@@H]5CC[C@]14C)[C@@H]2CC(C)(C)C[C@@H]3O[C@@H]1O[C@H](C(=O)O)[C@@H](O)[C@H](O)[C@H]1O` [PACHANOSIDE D1], the IC50 was above 200 µM. Regarding `COC(=O)[C@H]1O[C@@H](O[C@H]2CC[C@]3(C)[C@H]4CC=C5[C@@H]6CC(C)(C)CC[C@]6(C=O)[C@@H](O)C[C@@]5(C)[C@]4(C)CC[C@H]3C2(C)C)[C@H](O[C@@H]2O[C@H](CO)[C@@H](O)[C@H](O)[C@H]2O)[C@@H](O[C@@H]2O[C@H](CO)[C@@H](O)[C@H](O)[C@H]2O)[C@@H]1O` [GUMMOSOSIDE A METHYL ESTER], the IC50 stood at 99.5 µM.

Consider `CC(C)(O)[C@H]1[C@@H]2[C@H]3CC[C@@H]4[C@@]5(C)CC[C@H](O[C@@H]6O[C@H](C(=O)O)[C@@H](O)[C@H](O)[C@H]6O[C@@H]6O[C@H](CO)[C@@H](O)[C@H](O)[C@H]6O[C@@H]6OC[C@@H](O)[C@H](O)[C@H]6O)C(C)(C)[C@@H]5CC[C@@]4(C)[C@]3(C)CC[C@@]23C[C@@H]1OC3=O` [STELLATOSIDE B], for which the IC50 was above 200 µM.

For the compound `C=C(C)[C@H]1[C@@H]2[C@H]3CC[C@@H]4[C@@]5(C)CC[C@H](O[C@@H]6O[C@H](C(=O)O)[C@@H](O)[C@H](O[C@@H]7O[C@@H](C)[C@H](O)[C@@H](O)[C@H]7O)[C@H]6O[C@@H]6O[C@@H](C)[C@H](O)[C@@H](O)[C@H]6O)C(C)(C)[C@@H]5CC[C@@]4(C)[C@]3(C)CC[C@@]23C[C@@H]1OC3=O` [THURBEROSIDE A], the IC50 came out at 167 µM. Same read-out and setting: with `CC(=O)OC[C@]1(C)C[C@H]2C3=CC[C@@H]4[C@@]5(C)CC[C@H](O[C@@H]6O[C@H](C(=O)O)[C@@H](O)[C@H](O)[C@H]6O[C@@H]6O[C@H](CO)[C@@H](O)[C@H](O)[C@H]6O[C@@H]6OC[C@@H](O)[C@H](O)[C@H]6O)C(C)(C)[C@@H]5CC[C@@]4(C)[C@]3(C)[C@H]3C[C@]2(C[C@@H]1O)C(=O)O3` [BRIDGESIDE D1] the figure was above 200 µM.

Take `CC(=O)OC[C@]1(C)C[C@H]2C3=CC[C@@H]4[C@@]5(C)CC[C@H](O[C@@H]6O[C@H](C(=O)O)[C@@H](O)[C@H](O)[C@H]6O[C@@H]6O[C@H](CO)[C@@H](O)[C@H](O)[C@H]6O[C@@H]6O[C@@H](C)[C@H](O)[C@@H](O)[C@H]6O)C(C)(C)[C@@H]5CC[C@@]4(C)[C@]3(C)[C@H]3C[C@]2(C[C@@H]1O)C(=O)O3` [BRIDGESIDE D2]: the IC50 was above 200 µM.

As to `C[C@@H]1O[C@@H](O[C@H]2[C@H](O[C@H]3CC[C@]4(C)[C@H]5CC[C@@H]6[C@H]7[C@H](C(C)(C)O)[C@@H]8C[C@@]7(CC[C@@]6(C)[C@]5(C)CC[C@H]4C3(C)C)C(=O)O8)O[C@H](C(=O)O)[C@@H](O)[C@@H]2O[C@@H]2O[C@@H](C)[C@H](O)[C@@H](O)[C@H]2O)[C@H](O)[C@H](O)[C@H]1O` [STELLATOSIDE C], the IC50 was above 200 µM. For the compound `CC1(C)CC[C@]2(C=O)[C@@H](O)C[C@]3(C)C(=CC[C@@H]4[C@@]5(C)CC[C@H](O[C@@H]6O[C@H](C(=O)O)[C@@H](O)[C@H](O[C@@H]7O[C@H](CO)[C@@H](O)[C@H](O)[C@H]7O)[C@H]6O[C@@H]6O[C@H](CO)[C@@H](O)[C@H](O)[C@H]6O)C(C)(C)[C@@H]5CC[C@]43C)[C@@H]2C1` [GUMMOSOSIDE A], the IC50 was above 200 µM. With `C=C(C)[C@@H]1CC[C@]2(C(=O)O[C@@H]3O[C@H](CO)[C@@H](O)[C@H](O)[C@H]3O)CC[C@]3(C)[C@H](CC[C@@H]4[C@@]5(C)CC[C@H](O[C@@H]6O[C@H](C(=O)O)[C@@H](O)[C@H](O[C@@H]7O[C@@H](C)[C@H](O)[C@@H](O)[C@H]7O)[C@H]6O[C@@H]6O[C@@H](C)[C@H](O)[C@@H](O)[C@H]6O)C(C)(C)[C@@H]5CC[C@]43C)[C@@H]12` [ERUCASAPONIN A], the IC50 was above 200 µM. Same read-out and setting: as for `CC(=O)O[C@H]1CC(C)(C)C[C@H]2C3=CC[C@@H]4[C@@]5(C)CC[C@H](O[C@@H]6O[C@H](C(=O)O)[C@@H](O)[C@H](O[C@@H]7OC[C@@H](O)[C@H](O)[C@H]7O)[C@H]6O[C@@H]6O[C@H](CO)[C@@H](O)[C@H](O)[C@H]6O)C(C)(C)[C@@H]5CC[C@@]4(C)[C@]34OC(=O)[C@]12C[C@@H]4C` [PACHANOSIDE I1], the figure is above 200 µM. `C[C@@H]1O[C@@H](O[C@@H]2[C@@H](O)[C@@H](O)[C@H](O[C@H]3[C@H](O[C@H]4CC[C@]5(C)[C@H]6CC[C@@H]7[C@H]8[C@H](C(C)(C)O)[C@@H]9C[C@@]8(CC[C@@]7(C)[C@]6(C)CC[C@H]5C4(C)C)C(=O)O9)O[C@H](C(=O)O)[C@@H](O)[C@@H]3O)O[C@H]2C)[C@H](O)[C@H](O)[C@H]1O` [STELLATOSIDE A]: the IC50 was above 200 µM. Turning to `C[C@@H]1O[C@@H](O[C@H]2[C@H](O[C@H]3[C@H](O[C@H]4CC[C@]5(C)[C@H]6CC=C7[C@@H]8CC(C)(C)C[C@H](O)[C@]89C[C@@H](OC9=O)[C@@]7(C)[C@]6(C)CC[C@H]5C4(C)C)O[C@H](C(=O)O)[C@@H](O)[C@@H]3O)O[C@H](CO)[C@@H](O)[C@@H]2O)[C@H](O)[C@H](O)[C@H]1O` [DUMORTIERINOSIDE A], the IC50 was above 200 µM. Regarding `C[C@@H]1O[C@@H](O[C@@H]2[C@@H](O)[C@H](O[C@H]3CC[C@]4(C)[C@H]5CC=C6[C@@H]7CC(C)(C)CC[C@]7(C(=O)O[C@@H]7O[C@H](CO)[C@@H](O)[C@H](O)[C@H]7O)CC[C@@]6(C)[C@]5(C)CC[C@H]4C3(C)C)O[C@H](C(=O)O)[C@H]2O)[C@H](O)[C@H](O)[C@H]1O`, the 50% inhibitory concentration (IC50) is above 200 µM.

For `C[C@@H]1O[C@@H](O[C@H]2[C@H](O[C@H]3[C@H](O[C@H]4CC[C@]5(C)[C@H]6CC=C7[C@@H]8C[C@@](C)(CO)[C@@H](O)C[C@]89C[C@@H](OC9=O)[C@@]7(C)[C@]6(C)CC[C@H]5C4(C)C)O[C@H](C(=O)O)[C@@H](O)[C@@H]3O)O[C@H](CO)[C@@H](O)[C@@H]2O)[C@H](O)[C@H](O)[C@H]1O` [BRIDGESIDE A1], the IC50 is above 200 µM. In the case of `COC(=O)[C@H]1O[C@@H](O[C@H]2CC[C@]3(C)[C@H]4CC=C5[C@@H]6CC(C)(C)C[C@H](O)[C@]67C[C@@H](OC7=O)[C@@]5(C)[C@]4(C)CC[C@H]3C2(C)C)[C@H](O[C@@H]2O[C@H](CO)[C@@H](O)[C@H](O)[C@H]2O[C@@H]2O[C@@H](C)[C@H](O)[C@@H](O)[C@H]2O)[C@@H](O)[C@@H]1O`, the IC50 is above 200 µM.

For another experiment, the system named is RBL-2H3. Description: Anti-type1 allergic activity in rat RBL2H3 cells using p-nitrophenyl-2-acdetamido-2-deoxy-beta-D-glucopyranoside as substrate assessed as inhibition of beta-hexosaminidase release at 200 uM incubated for 10 mins prior to substrate addition measured after 60 mins by spectrophotometry. In kind it is functional.
On to `C[C@@H]1O[C@@H](O[C@H]2[C@H](O[C@H]3[C@H](O[C@H]4CC[C@]5(C)[C@H]6CC=C7[C@@H]8CC(C)(C)C[C@H](O)[C@]89C[C@@H](OC9=O)[C@@]7(C)[C@]6(C)CC[C@H]5C4(C)C)O[C@H](C(=O)O)[C@@H](O)[C@@H]3O)O[C@H](CO)[C@@H](O)[C@@H]2O)[C@H](O)[C@H](O)[C@H]1O` [DUMORTIERINOSIDE A], for which the inhibition at 200 µM was found to be 32.5%.

A further experiment deals with RBL-2H3. Briefly: Anti-type1 allergic activity in rat RBL2H3 cells using p-nitrophenyl-2-acdetamido-2-deoxy-beta-D-glucopyranoside as substrate assessed as inhibition of beta-hexosaminidase release at 100 uM incubated for 10 mins prior to substrate addition measured after 60 mins by spectrophotometry. In kind it is functional.
As to `COC(=O)[C@H]1O[C@@H](O[C@H]2CC[C@]3(C)[C@H]4CC=C5[C@@H]6CC(C)(C)C[C@H](O)[C@]67C[C@@H](OC7=O)[C@@]5(C)[C@]4(C)CC[C@H]3C2(C)C)[C@H](O[C@@H]2O[C@H](CO)[C@@H](O)[C@H](O)[C@H]2O[C@@H]2O[C@@H](C)[C@H](O)[C@@H](O)[C@H]2O)[C@@H](O)[C@@H]1O`, the inhibition at 100 µM is 40.3%.
